Data from PMC3210414 (Nature structural & molecular biology, 2011).

Experiments:
EF-Tu (T. thermophilus) [1] = target: EF-Tu (T. thermophilus) (Thermus thermophilus, UniProt Q5SHN6); test: nitrocellulose filter binding with [3H]GDP
EF-Tu (T. thermophilus) [2] = target: EF-Tu (T. thermophilus) (Thermus thermophilus, UniProt Q5SHN6, T395C); test: nitrocellulose filter binding with [3H]GDP

Kd (EF-Tu (T. thermophilus) [1]): 7 nM
Kd (EF-Tu (T. thermophilus) [2]): 11 nM
Compound: Nc1nc2c(ncn2[C@@H]2O[C@H](COP(=O)(O)OP(=O)(O)O)[C@@H](O)[C@H]2O)c(=O)[nH]1 [GDP]
